Source: patent US20160122305A1, “Topical Compositions and Methods of Use Thereof” (Avon Products, Inc., priority 2014, published 2016)
Read-outs that look alike come from different tables or passages of the source.

Columns and labels:
α1A adrenergic receptor = biological target: T1, α1A adrenergic receptor (Homo sapiens, UniProt P35348); test: SelectScreen cell-based GPCR profiling, α1A agonist assay; settings: for selectivity of agonism (α1A and/or α2A EC50 less than 1,000 nM and insignificant activity at β2): classification in words from Table 1 EC50 values, insignificant β2 activity = EC50 greater than about 500 nM
T1 sequence (P35348 1-466): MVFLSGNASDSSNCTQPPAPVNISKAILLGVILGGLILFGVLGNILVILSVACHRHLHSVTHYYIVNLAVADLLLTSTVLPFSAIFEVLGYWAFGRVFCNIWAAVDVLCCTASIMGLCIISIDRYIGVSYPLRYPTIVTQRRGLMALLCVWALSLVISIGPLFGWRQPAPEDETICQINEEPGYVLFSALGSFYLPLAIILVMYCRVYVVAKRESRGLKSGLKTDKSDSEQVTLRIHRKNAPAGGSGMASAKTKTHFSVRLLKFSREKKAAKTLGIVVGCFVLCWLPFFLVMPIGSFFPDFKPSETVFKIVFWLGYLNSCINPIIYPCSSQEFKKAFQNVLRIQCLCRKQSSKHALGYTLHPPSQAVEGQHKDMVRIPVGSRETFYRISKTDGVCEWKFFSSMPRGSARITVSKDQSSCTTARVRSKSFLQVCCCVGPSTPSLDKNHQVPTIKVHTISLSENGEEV
Method: 32 μL of cell suspension (10,000 cells) were added to each well of a 384-well TC-Treated assay plate. Cells in Assay Media were incubated for 16-24 hours in the plate at 37° C./5% CO2 in a humidified incubator. […] 4 μL of Assay Media was added to all wells to bring the final assay volume to 40 μL. The plate was incubated for 5 hours at 37° C./5% CO2 in a humidified incubator. 8 μL of 1 μM Substrate+Loading Solution was added to each well and the plate was incubated for 2 hours at room temperature. The plate was read on a fluorescence plate reader.

α2A adrenergic receptor = biological target: T2, α2A adrenergic receptor (Homo sapiens, UniProt P08913); test: SelectScreen cell-based GPCR profiling, α2A agonist assay; settings: 5 hours incubation, fluorescence read
T2 sequence (P08913 1-465): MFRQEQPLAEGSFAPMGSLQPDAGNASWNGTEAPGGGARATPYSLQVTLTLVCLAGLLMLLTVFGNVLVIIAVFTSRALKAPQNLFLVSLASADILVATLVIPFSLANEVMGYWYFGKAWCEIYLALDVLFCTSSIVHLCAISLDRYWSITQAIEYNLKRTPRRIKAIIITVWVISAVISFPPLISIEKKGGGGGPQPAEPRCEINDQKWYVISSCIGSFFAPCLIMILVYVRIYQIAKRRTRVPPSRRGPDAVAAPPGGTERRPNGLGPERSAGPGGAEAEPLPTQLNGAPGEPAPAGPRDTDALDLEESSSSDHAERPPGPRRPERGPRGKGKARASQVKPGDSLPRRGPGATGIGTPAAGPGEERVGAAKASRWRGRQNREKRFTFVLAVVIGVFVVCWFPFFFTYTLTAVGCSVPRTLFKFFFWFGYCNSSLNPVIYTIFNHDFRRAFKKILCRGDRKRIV
Method: (§1) The Compounds of Formulas (III)-(V) were subjected to an in vitro screening against α1A, α2A, and β2 adrenergic receptors using SelectScreen® Cell-based GPCR Profiling Service from Life Technologies. In each of the three agonist assays (α1A, α2A, and β2), cells were thawed and resuspended in Assay Media (DMEM, 10% dialyzed FBS, 25 mM HEPES pH 7.3, 0.1 mM NEAA, 100 U/mL/100 μg/mL Pen/Strep) to a concentration of 312,500 cells/mL. 32 μL of cell suspension (10,000 cells) were added to each well of a 384-well TC-Treated assay plate. Cells in Assay Media were incubated for 16-24 hours in the plate at 37° C./5% CO2 in a humidified incubator. 4 μL of a 10× serial dilution of a control agonist (phenylephrine for α1A; UK 14304 for α2A; isoproterenol for β2) or a Compound III-V were added to appropriate wells of the plate. 4 μL of Assay Media was added to all wells to bring the final assay volume to 40 μL. The plate was incubated for 5 hours at 37° C./5% CO2 in a humidified incubator. 8 μL of 1 μM Substrate+Loading Solution was added to each well and the plate was incubated for 2 hours at room temperature. The plate was read on a fluorescence plate reader.

β2 adrenergic receptor = β2 adrenergic receptor (Homo sapiens, UniProt P07550); test: SelectScreen cell-based GPCR profiling, β2 agonist assay; settings: 5 hours incubation, fluorescence read
Chain of β2 adrenergic receptor (P07550 whole entry): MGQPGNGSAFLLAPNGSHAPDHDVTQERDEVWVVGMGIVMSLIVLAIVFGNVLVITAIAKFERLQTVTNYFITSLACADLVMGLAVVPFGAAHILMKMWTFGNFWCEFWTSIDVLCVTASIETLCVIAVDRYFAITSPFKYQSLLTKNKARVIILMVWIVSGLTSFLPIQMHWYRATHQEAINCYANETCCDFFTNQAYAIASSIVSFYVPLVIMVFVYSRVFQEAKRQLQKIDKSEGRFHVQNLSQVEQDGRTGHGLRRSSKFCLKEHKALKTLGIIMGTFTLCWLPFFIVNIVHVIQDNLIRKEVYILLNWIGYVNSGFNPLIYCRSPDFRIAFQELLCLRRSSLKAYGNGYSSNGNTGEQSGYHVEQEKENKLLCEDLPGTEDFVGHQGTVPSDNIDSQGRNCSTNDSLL
Method: as §1

[1] = agonist assay, 5 hours incubation, fluorescence read, read-out: α1A Activity, EC50

EC50 (α1A adrenergic receptor; [1]) [nM]	selectivity of agonism (α1A and/or α2A EC50 less than 1,000 nM and insignificant activity at β2) (α1A adrenergic receptor)	EC50 (α2A adrenergic receptor) [nM]	EC50 (β2 adrenergic receptor) [nM]	SMILES	EC50 (α1A adrenergic receptor) [nM]
32.6	selective α1A and α2A receptor agonist	277	> 63000	CC(Oc1ccccc1/C=N/O)C1=NCCN1 (centres unmarked) [V]	–
13	selective α1A receptor agonist	> 25000	> 25000	CC(Oc1ccccc1-c1cccnc1)C1=NCCN1 (centres unmarked) [IV]	–

SMILES	EC50 (α1A adrenergic receptor; [1]) [nM]	selectivity of agonism (α1A and/or α2A EC50 less than 1,000 nM and insignificant activity at β2) (α1A adrenergic receptor)	EC50 (α2A adrenergic receptor) [nM]	EC50 (β2 adrenergic receptor) [nM]	EC50 (α1A adrenergic receptor) [nM]
CC(Oc1ccccc1C1CCCC1)C1=NCCN1 (centres unmarked) [Compound III]	–	–	18.7	> 6300	< 0.119
